System: 786-0 complex spheroids with HUVEC/MSC, growth % test/control
Assay: Anticancer human tumor 786-0 cell line growth inhibition [AhR];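 also: compound exposure lasted seven days before the read-out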
Conditions: for IC50: curve of first compound; for viability, T/C: stronger effect = lower value
Description: Multicellular complex tumor spheroid response to aryl hydrocarbon receptor antagonists in combination with a variety of drugs and investigational agents in selected tumor cell lines
The current study was undertaken to assess response to aryl hydrocarbon receptor antagonists in combination with standard-of-care drugs and investigational agents in solid tumor complex spheroid models. Complex spheroids include a stromal component modeled by human endothelial cells (HUVEC) and fibroblasts modeled by human mesenchymal stem cells (MSCs). The concentration ranges selected for each drug and investigational agent were based upon clinically achievable concentrations if the clinical Cmax of the agent was known.
Compounds. The drugs and investigational agents: BAY 2416964 (NSC825713), GNF351 (NSC835774), CH-223191 (NSC835775), CPI-455 (NSC825282), aza-TdCyd (NSC777586), decitabine (NSC127716), belinostat (NSC758774), entinostat (NSC756642), pevonedistat (NSC761192), tazemetostat (NSC777109), talazoparib (NSC765396), olaparib (NSC753686), selinexor (NSC780203), nedisertib (M3814, NSC802822), bortezomib (NSC756655), venetoclax (NSC766270), doxorubicin (NSC123127), elimusertib (BAY189344, NSC800525), ceralasertib (AZD6738, NSC777638), TAK-243 (NSC785004), alisertib (NSC759677), etoposide (NSC141540), topotecan (NSC609699), eribulin (NSC707389), gemcitabine (NSC613327), carboplatin (NSC241240), cisplatin (NSC119875), and SN-38 (NSC673596) were obtained from the National Cancer Institute (NCI) Developmental Therapeutics Program Chemical Repository (32). The FDA-approved anticancer drug set is available from the Developmental Therapeutics Program at https://dtp.cancer.gov/organization/dscb/obtaining/available plates.htm. […] The stock solutions were prepared in dimethyl sulfoxide (DMSO, Sigma-Aldrich, St. Louis, MO, cat. D2650), except for the platinum compounds which were prepared in saline (Quality Biological, Gaithersburg, MD, cat. 114-055-101), at 800-fold the tested concentration and stored at -70 degrees C prior to their use. All drugs and investigational agents were tested over a range starting from a high concentration at or near the clinical Cmax and decreasing in half-log increments. If the clinical Cmax for an agent had not been determined, the highest concentration tested was 10 microM (Table 1).
Cell Culture. All cells were maintained in an incubator at 37 degrees C and 5% CO2 with 95% humidity. The PDC lines were cultured according to standard operating procedures established by the NCI PDMR (https://pdmr.cancer.gov). Briefly, all PDCs were thawed and cultured in Matrigel-coated flasks prepared with a working solution of 1X Ham's F-12 nutrient mix, without supplementation (Invitrogen, Waltham, MA, cat. 11765054), 100 U/mL penicillin-streptomycin (Invitrogen, cat. 15140122), and 2.5% Matrigel (Corning Inc., Corning, NY, cat. 354248) for the first three passages. All PDCs were cultured in complete DMEM/F-12 media containing advanced DMEM/F-12 (Invitrogen, cat. 12634028), 4.9% defined fetal bovine serum, heat inactivated (HyClone Laboratories Inc., Logan, UT, cat. SH30070.03HI), 389 ng/mL hydrocortisone (Sigma-Aldrich, cat. H4001), 9.7 ng/mL human EGF recombinant protein (Invitrogen, cat. PHG0313), 23.4 microg/mL adenine (Sigma-Aldrich, cat. A2786), 97.3 U/mL penicillin-streptomycin (Invitrogen, cat. 15140122), 1.9 mM L-glutamine (Invitrogen, cat. 25030081), and 9.7 microM Y-27632 dihydrochloride (Tocris Bioscience, Bristol, United Kingdom, cat. 1254). The PDCs were cultured in complete DMEM/F12 media without 10 microM Y-27632 dihydrochloride for at least two passages prior to the screen. The established cell lines NCI-H1341 and […] were cultured in DMEM/F-12, HEPES (Invitrogen, cat. 11330032), 5% defined fetal bovine serum (HyClone Laboratories Inc., cat. SH30070.03), ITS premix universal culture supplement [insulin (5 microg/mL), transferrin (5 microg/mL), and selenious acid (5 ng/mL)] […]

[1] = second compound 0.1 µM, first compound 0.00316 µM
[2] = second compound 0.1 µM, first compound 0.01 µM
[3] = second compound 0.1 µM, first compound 0.0316 µM
[4] = second compound 0.1 µM, first compound 0.1 µM
[5] = second compound 0.316 µM, first compound 0.00316 µM
[6] = second compound 0.316 µM, first compound 0.01 µM
[7] = second compound 0.316 µM, first compound 0.0316 µM
[8] = second compound 0.316 µM, first compound 0.1 µM
[9] = second compound 1 µM, first compound 0.00316 µM
[10] = second compound 1 µM, first compound 0.01 µM
[11] = second compound 1 µM, first compound 0.0316 µM
[12] = second compound 1 µM, first compound 0.1 µM
[13] = second compound 3.16 µM, first compound 0.00316 µM
[14] = second compound 3.16 µM, first compound 0.01 µM
[15] = second compound 3.16 µM, first compound 0.0316 µM
[16] = second compound 3.16 µM, first compound 0.1 µM
[17] = second compound 10 µM, first compound 0.00316 µM
[18] = second compound 10 µM, first compound 0.01 µM
[19] = second compound 10 µM, first compound 0.0316 µM
[20] = second compound 10 µM, first compound 0.1 µM
[21] = second compound 0.1 µM, first compound 0.316 µM
[22] = second compound 0.1 µM, first compound 1 µM
[23] = second compound 0.1 µM, first compound 3.16 µM
[24] = second compound 0.1 µM, first compound 10 µM
[25] = second compound 0.316 µM, first compound 0.316 µM
[26] = second compound 0.316 µM, first compound 1 µM
[27] = second compound 0.316 µM, first compound 3.16 µM
[28] = second compound 0.316 µM, first compound 10 µM
[29] = second compound 1 µM, first compound 0.316 µM
[30] = second compound 1 µM, first compound 1 µM
[31] = second compound 1 µM, first compound 3.16 µM
[32] = second compound 1 µM, first compound 10 µM
[33] = second compound 3.16 µM, first compound 0.316 µM
[34] = second compound 3.16 µM, first compound 1 µM
[35] = second compound 3.16 µM, first compound 3.16 µM
[36] = second compound 3.16 µM, first compound 10 µM
[37] = second compound 10 µM, first compound 0.316 µM
[38] = second compound 10 µM, first compound 1 µM
[39] = second compound 10 µM, first compound 3.16 µM
[40] = second compound 10 µM, first compound 10 µM

CC[C@@]1(O)C(=O)OCc2c1cc1n(c2=O)Cc2cc3c(CN(C)C)c(O)ccc3nc2-1 + CC(CO)NC(=O)c1cc(-c2ccc(Cl)cc2)nn(-c2cnn(C)c2)c1=O
IC50 (second compound 0.1 µM): 0.059 µM | IC50 (second compound 0.316 µM): 0.0576 µM | IC50 (second compound 1 µM): 0.0608 µM | IC50 (second compound 3.16 µM): 0.0536 µM | IC50 (second compound 10 µM): 0.0518 µM | viability, T/C (second compound 0.1 µM, first compound 0.000316 µM): 112% | viability, T/C (second compound 0.1 µM, first compound 0.001 µM): 119% | viability, T/C [1]: 111% | viability, T/C [2]: 115% | viability, T/C [3]: 90.9% | viability, T/C [4]: 15.2% | viability, T/C (second compound 0.316 µM, first compound 0.000316 µM): 106% | viability, T/C (second compound 0.316 µM, first compound 0.001 µM): 114% | viability, T/C [5]: 112% | viability, T/C [6]: 109% | viability, T/C [7]: 89.9% | viability, T/C [8]: 13.3% | viability, T/C (second compound 1 µM, first compound 0.000316 µM): 113% | viability, T/C (second compound 1 µM, first compound 0.001 µM): 107% | viability, T/C [9]: 108% | viability, T/C [10]: 104% | viability, T/C [11]: 95.4% | viability, T/C [12]: 15.2% | viability, T/C (second compound 3.16 µM, first compound 0.000316 µM): 113% | viability, T/C (second compound 3.16 µM, first compound 0.001 µM): 116% | viability, T/C [13]: 109% | viability, T/C [14]: 109% | viability, T/C [15]: 80.9% | viability, T/C [16]: 13.4% | viability, T/C (second compound 10 µM, first compound 0.000316 µM): 118% | viability, T/C (second compound 10 µM, first compound 0.001 µM): 116% | viability, T/C [17]: 118% | viability, T/C [18]: 113% | viability, T/C [19]: 76.9% | viability, T/C [20]: 14.1%

COc1cc(C2c3cc4c(cc3C(OC3OC5COC(C)OC5C(O)C3O)C3COC(=O)C23)OCO4)cc(OC)c1O (stereo not given) + CC(CO)NC(=O)c1cc(-c2ccc(Cl)cc2)nn(-c2cnn(C)c2)c1=O
IC50 (second compound 0.1 µM): 0.597 µM | IC50 (second compound 0.316 µM): 0.517 µM | IC50 (second compound 1 µM): 0.422 µM | IC50 (second compound 3.16 µM): 0.232 µM | IC50 (second compound 10 µM): 0.255 µM | viability, T/C [3]: 89.7% | viability, T/C [4]: 82% | viability, T/C [21]: 74.2% | viability, T/C [22]: 29.7% | viability, T/C [23]: 18.8% | viability, T/C [24]: 5.08% | viability, T/C [7]: 66% | viability, T/C [8]: 72.5% | viability, T/C [25]: 69.1% | viability, T/C [26]: 24.9% | viability, T/C [27]: 13.1% | viability, T/C [28]: 6.05% | viability, T/C [11]: 79.1% | viability, T/C [12]: 94.9% | viability, T/C [29]: 58.7% | viability, T/C [30]: 20.2% | viability, T/C [31]: 16% | viability, T/C [32]: 4.53% | viability, T/C [15]: 83.7% | viability, T/C [16]: 65.6% | viability, T/C [33]: 44.8% | viability, T/C [34]: 24.4% | viability, T/C [35]: 17.5% | viability, T/C [36]: 5.67% | viability, T/C [19]: 88.3% | viability, T/C [20]: 78.8% | viability, T/C [37]: 40.2% | viability, T/C [38]: 22.2% | viability, T/C [39]: 13.9% | viability, T/C [40]: 3.72%

COc1cccc2c1C(=O)c1c(O)c3c(c(O)c1C2=O)CC(O)(C(=O)CO)CC3OC1CC(N)C(O)C(C)O1 (stereo not given) + CC(CO)NC(=O)c1cc(-c2ccc(Cl)cc2)nn(-c2cnn(C)c2)c1=O
IC50 (second compound 0.1 µM): 0.043 µM | IC50 (second compound 0.316 µM): < 0.0316 µM | IC50 (second compound 1 µM): 0.0455 µM | IC50 (second compound 3.16 µM): < 0.0316 µM | IC50 (second compound 10 µM): < 0.0316 µM | viability, T/C [3]: 54.4% | viability, T/C [4]: 37.9% | viability, T/C [21]: 12.5% | viability, T/C [22]: 2.51% | viability, T/C [23]: 0.63% | viability, T/C [24]: 0.56% | viability, T/C [7]: 46.7% | viability, T/C [8]: 40% | viability, T/C [25]: 14.3% | viability, T/C [26]: 3.11% | viability, T/C [27]: 0.25% | viability, T/C [28]: 0.6% | viability, T/C [11]: 54.3% | viability, T/C [12]: 40.6% | viability, T/C [29]: 11.6% | viability, T/C [30]: 3.23% | viability, T/C [31]: 0.45% | viability, T/C [32]: 0.49% | viability, T/C [15]: 47.4% | viability, T/C [16]: 42.3% | viability, T/C [33]: 10.9% | viability, T/C [34]: 3.69% | viability, T/C [35]: 0.34% | viability, T/C [36]: 0.41% | viability, T/C [19]: 44.9% | viability, T/C [20]: 37.5% | viability, T/C [37]: 11.2% | viability, T/C [38]: 1.48% | viability, T/C [39]: 0.72% | viability, T/C [40]: 0.86%

Nc1ncn(C2CC(O)C(CO)O2)c(=O)n1 (stereo not given) + CC(CO)NC(=O)c1cc(-c2ccc(Cl)cc2)nn(-c2cnn(C)c2)c1=O
IC50 (second compound 0.1 µM): > 1 µM | IC50 (second compound 0.316 µM): > 1 µM | IC50 (second compound 1 µM): > 1 µM | IC50 (second compound 3.16 µM): > 1 µM | IC50 (second compound 10 µM): > 1 µM | viability, T/C [1]: 96.2% | viability, T/C [2]: 79.7% | viability, T/C [3]: 72.4% | viability, T/C [4]: 75.3% | viability, T/C [21]: 75.3% | viability, T/C [22]: 62% | viability, T/C [5]: 69% | viability, T/C [6]: 66% | viability, T/C [7]: 75.3% | viability, T/C [8]: 62.1% | viability, T/C [25]: 57.9% | viability, T/C [26]: 55% | viability, T/C [9]: 82.4% | viability, T/C [10]: 109% | viability, T/C [11]: 88.6% | viability, T/C [12]: 72.1% | viability, T/C [29]: 65.3% | viability, T/C [30]: 61% | viability, T/C [13]: 108% | viability, T/C [14]: 94.1% | viability, T/C [15]: 93.8% | viability, T/C [16]: 91.2% | viability, T/C [33]: 77.7% | viability, T/C [34]: 64.3% | viability, T/C [17]: 116% | viability, T/C [18]: 121% | viability, T/C [19]: 122% | viability, T/C [20]: 117% | viability, T/C [37]: 109% | viability, T/C [38]: 73.1%

From PubChem BioAssay AID1919003 (Molecular Pharmacology Branch, DTP, NCI, 2023)
